From patent US8796230B2, “Ivermectin antagonizes ethanol inhibition in P2X4 receptors” (University of Southern California, priority 2010, dated 2014)
“Also recorded” adds a separate entry of the source. Where two headings read alike, the source gives them in different places.

Key:
[1] = system: mutant P2X4Rs at position 336; conditions: cited from earlier work
rat P2X4R = target: T1, rat P2X4R (Rattus norvegicus, UniProt P51577); experiment: Two-electrode voltage-clamp of ATP EC10-induced currents in WT P2X4Rs expressed in Xenopus oocytes; format: cell-based
T1 construct: expressed in transfected cells; host or cells: Xenopus laevis oocytes injected with cRNA
T1 sequence (P51577 1-388): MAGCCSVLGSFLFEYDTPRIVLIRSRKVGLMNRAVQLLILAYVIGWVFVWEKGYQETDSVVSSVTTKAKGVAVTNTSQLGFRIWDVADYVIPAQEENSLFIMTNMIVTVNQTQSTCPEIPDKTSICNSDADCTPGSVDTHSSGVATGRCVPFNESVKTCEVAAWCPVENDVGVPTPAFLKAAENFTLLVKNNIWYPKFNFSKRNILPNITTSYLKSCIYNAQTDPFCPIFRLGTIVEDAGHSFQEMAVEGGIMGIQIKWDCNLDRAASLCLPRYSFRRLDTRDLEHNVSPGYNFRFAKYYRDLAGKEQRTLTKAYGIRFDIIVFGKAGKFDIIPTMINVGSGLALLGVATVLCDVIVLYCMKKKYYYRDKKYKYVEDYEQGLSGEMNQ
Method: Isolation of Xenopus Laevis oocytes and cRNA injections. Xenopus oocytes were isolated and maintained as described previously^18,19. All procedures for the maintenance of Xenopus Laevis frogs and oocyte isolation were approved by The Institutional Animal Care and Use Committee of the University of Southern California. Stage V and VI oocytes were used for cRNA (0.01-5 ng) injections using Nanoject II Nanoliter injection system (Drummond Scientific, Broomall, Pa.) one day after isolation. Injected oocytes were stored at 16° C. in incubation medium containing (in mM), […], theophylline 0.6, pyruvic acid 2.5, with 1% horse serum and 0.05 mg/ml gentamycin. The oocytes were used in electrophysiological recordings for 3-10 days after cRNA injections.
Site-directed mutagenesis and cRNA synthesis. The cDNA of rat P2X4R (GenBank accession No. X87763) was sub-cloned into pcDNA3 vector (Invitrogen, Carlsbad, Calif.). Mutagenesis was performed to introduce single point mutations using QuickChange IIXL Site-Directed Mutagenesis kit (Stratagene, La Jolla, Calif.). The sequences of mutant constructs were verified using automated DNA sequencing (USC/Norris DNA Core Facility, University of Southern California).
The DNA of WT or mutant receptors was linearized and transcribed using the mMESSAGE mMACHINE kit (Ambion, Austin, Tex.) to result in cRNA, which was stored at −70° C. until injection.
Whole-cell voltage-clamp recordings. Two-electrode voltage-clamp recordings of oocytes were performed using a Warner Instruments Model OC-725C oocyte clamp amplifier (Hamden, Conn.) using procedures published earlier^5,6.
Experimental procedures. To induce currents and test the effects of alcohols and IVM in the present experiments, maximal (100 μM) or submaximal ATP concentrations (EC5-10 furthered referred to as EC10) were used. It has been previously shown that the use of EC10 can maximize the effects of ethanol and minimize receptor desensitization 18,19. The washout time between agonist applications was at least 5-10 min to allow complete re-sensitization of the receptors^18, 19.
Effects of the drugs were tested after a stable response to ATP EC10 was obtained. After a sufficient washout time (5-15 min), the cells were challenged with the same ATP EC10 to ensure an accurate response to the drugs and to asses any change in the baseline level.
IVM and alcohol applications.
Data analysis. Data are obtained from several batches of oocytes of at least 3 different frogs and are expressed as mean±SEM. Ethanol (hexanol) and/or IVM effects are presented as percentage change of peak currents evoked by ATP EC10 alone. Data were fitted to a concentration-response curve by using the following logistic equation: I=Imax*[drug]/([drug]+(EC50)), where I/Imax is the percentage of the maximum obtainable response, EC50 is the concentration producing a half-maximal response. GraphPAD Prism software (San Diego, Calif.) was used for data analysis and curve fitting. Statistical analysis was performed using unpaired t-test with significance set at P<0.05.

P2X2R = experiment: Effect of n-chain alcohols on P2X2R function (unpublished data); format: cell-based
Text: This possibility was investigated by testing the effects of IVM on another n-chain alcohol. Previous investigations report that short chain alcohols potentiate, whereas long chain alcohols inhibit, native nicotinic acetylcholine receptors (nAChRs) contained in neuromuscular or Torpedo preparations^26-28. This alcohol crossover occurred at approximately butanol in nAChRs expressed in Xenopus oocytes^29. […] It is believed that testing an alcohol that produced potentiation, rather than inhibition, would provide an alternative method of determining if the interaction between ethanol and IVM represented an additive effect.

rat WT P2X4 receptor = target: T2, rat WT P2X4 receptor (Rattus norvegicus, UniProt P51577); experiment: Comparison of Ivermectin analogues: two-electrode voltage-clamp of ATP EC10 currents in rat WT P2X4 receptor in Xenopus oocytes; format: cell-based
T2 construct: expressed in transfected cells; host or cells: Xenopus laevis oocytes injected with cRNA
T2 sequence (P51577 1-388): T1 sequence (P51577 1-388)
Method: Isolation of Xenopus Oocytes and cRNA Injections. Xenopus laevis frog (Nasco; WI) maintenance, oocyte isolation and cRNA injections were performed according to protocols as described previously (11,12,24).
Transcription of cDNA to cRNA. XL-Blue E. coli competent cells (Stratagene; CA) were transformed with rat WT P2X4 receptor cDNAs cloned into pcDNA3 vector (Invitrogen; CA). The isolated DNA was linearized and transcribed to result in capped cRNA, which was dissolved in nuclease-free water and stored at −70° C. until injection.
Whole-Cell Voltage Clamp Recording. […] Electrodes were prepared and used to impale the oocyte that was continuously perfused at the rate of 3-4 ml/min by extracellular bathing solution per procedures previously published (11,12,24). The peak currents recorded using a strip-chart recorder (Barnstead/Thermolyne, Iowa) were used in data analysis. All experiments were performed at room temperature (20-23° C.).
Experimental Procedures. Maximal ATP currents were induced by 15 s application of 100 μM ATP. Submaximal ATP concentrations (EC10) were applied for 20 s to generate currents. Ethanol and ABM/IVM were co-applied with ATP EC10. Washout time between drug applications was at least 5 min.
Data Analysis. Data are obtained from several batches of at least 3 different oocyte batches and are presented as percentage change of peak currents evoked by ATP EC10 alone±SEM. GraphPAD Prism software (San Diego, Calif.) was used for data analysis and curve fitting. Statistical analysis was performed using Student's unpaired t-test and significance set at P<0.05.

male C57BL/6 mice = conditions: mouse, in vivo

## CCO [ethanol]
[1]; Ala, Val at position 336
  sensitivity of the receptor to ethanol: reduced
[1]; Arg or Glu at position 336
  sensitivity of the receptor to ethanol: insensitive
Rat P2X4R; 25 mM ethanol, delivered separately, ATP EC10, read-out: inhibition of ATP-gated currents in P2X4Rs
  inhibition at 25000 µM: 9 ± 2.3%
Rat P2X4R; ethanol 25-200 mM co-applied with ATP, concentration-dependent and reversible
  effect on ATP EC10-induced currents in P2X4Rs: inhibited
Rat P2X4R; ethanol (C2) 200 mM
  effect on ATP-induced currents in P2X4R: inhibited
P2X2R
  effect on P2X2R function: inhibit

## CCCCCCO [hexanol]
Rat P2X4R; hexanol (C6) 10 mM
  effect on ATP-induced currents in P2X4R: significantly potentiated; also recorded: significant potentiation

## CCCO [propanol]
P2X2R
  effect on P2X2R function: inhibit

## Abamectin [ABM]
Rat WT P2X4 receptor; ABM 0.5 μM, 25 and 50 mM ethanol
  antagonism of the inhibitory effects of ethanol: antagonizes
Rat WT P2X4 receptor; ABM 1.0 μM, all ethanol concentrations tested
  antagonism of the inhibitory effects of ethanol: able to antagonize
Rat WT P2X4 receptor; higher concentrations (≧3 μM)
  potency in modulating P2X4R activity relative to IVM (more potent): 3-10 fold
Rat WT P2X4 receptor; lower concentrations (0.5 and 1.0 μM)
  potentiation of P2X4R activity compared with IVM: to the same degree as IVM

## Selamectin
Rat WT P2X4 receptor
  potency in modulating P2X4R activity relative to IVM (lower potency): 3-5 fold
Rat WT P2X4 receptor; SEL at 3 and 10 mM, 50 mM ethanol, co-application
  antagonism of the inhibitory effects of ethanol: antagonistic effect
Rat WT P2X4 receptor; co-application and pre-incubation (FIGS. 10C and 10D)
  potentiation of ATP-induced currents, concentration dependence: small concentration-independent potentiation
Rat WT P2X4 receptor; only at 10 μM SEL during co-application
  potentiation of P2X4Rs: Significant potentiation
Rat WT P2X4 receptor; pre-incubation
  potentiation with the pre-incubation protocol versus co-application: higher potentiation
Male C57BL/6 mice
  ethanol intake in mice: no effect

## butanol
Rat P2X4R; butanol (C4) 50 mM
  effect on ATP-induced currents in P2X4R: minimal effect
Rat P2X4R; butanol (C4) 50 mM, listed as Butanol
  effect on ATP-induced currents in P2X4R: minimal effects
P2X2R
  effect on P2X2R function: potentiates
